# In ChEMBL document CHEMBL5512683, “Discovery of Novel ERα and Aromatase Dual-Targeting PROTAC Degraders to Overcome Endocrine-Resistant Breast Cancer” (J Med Chem, 2024):
# Active and inactive are the calls of the source. The rule behind the calls is not given here.
# Assays:
# MCF7 [1] = assay: Reduction in ERS1 mRNA expression in resistant human MCF7 cells at 5 uM by real-time quantitative polymerase chain reaction (RT-qPCR) analysis; format: functional, cell-based
# MCF7 [2] = assay: Reduction in MYC mRNA expression in resistant human MCF7 cells harboring ERalpha Y537S mutant at 5 uM by real-time quantitative polymerase chain reaction (RT-qPCR) analysis; format: functional, cell-based
# [3] = target: T1, von Hippel-Lindau disease tumor suppressor/Aromatase (Homo sapiens, UniProt P11511+P40337); assay: PROTAC activity at human ARO/VHL E3 ligase in human MCF-7 cells assessed as degradation of ARO at 1 uM incubated for 24 hrs by Western blot analysis; format: cell-based; settings: mcf7, 24 h
# T1 sequence (P40337 whole entry, one chain of several): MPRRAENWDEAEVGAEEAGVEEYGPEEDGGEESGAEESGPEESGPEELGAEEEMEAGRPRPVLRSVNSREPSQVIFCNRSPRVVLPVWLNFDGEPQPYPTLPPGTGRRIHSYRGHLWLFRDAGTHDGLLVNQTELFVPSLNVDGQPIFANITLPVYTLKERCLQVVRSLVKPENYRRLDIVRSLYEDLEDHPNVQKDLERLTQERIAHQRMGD
# MCF7 [4] = assay: Reduction in MYC mRNA expression in resistant human MCF7 cells at 5 uM by real-time quantitative polymerase chain reaction (RT-qPCR) analysis; format: functional, cell-based
# MCF7 [5] = assay: Antiproliferative activity against human resistant MCF7 cells harboring ERalpha Y537S mutant at LBD assessed as cell viability incubated for 96 hrs by CCK8 assay; settings: MCF7, 96 h
# MCF7 [6] = assay: Reduction in ERS1 mRNA expression in resistant human MCF7 cells harboring ERalpha D538G mutant at 5 uM by real-time quantitative polymerase chain reaction (RT-qPCR) analysis; format: functional, cell-based
# MCF7 [7] = assay: Reduction in MYC mRNA expression in resistant human MCF7 cells harboring ERalpha D538G mutant at 5 uM by real-time quantitative polymerase chain reaction (RT-qPCR) analysis; format: functional, cell-based
# MCF7 [8] = assay: Reduction in ERS1 mRNA expression in resistant human MCF7 cells harboring ERalpha Y537S mutant at 5 uM by real-time quantitative polymerase chain reaction (RT-qPCR) analysis; format: functional, cell-based
# MCF7 [9] = assay: Antiproliferative activity against human resistant MCF7 cells harboring ERalpha D538G mutant at LBD assessed as cell viability incubated for 96 hrs by CCK8 assay; settings: MCF7, 96 h
# MCF7 [10] = assay: Anti-proliferative activity against ERalpha positive human MCF7 cells incubated for 96 hrs by CCK8 assay; settings: MCF7, 96 h
# Aromatase = target: T2, Aromatase (Homo sapiens, UniProt P11511); assay: Inhibition of recombinant human aromatase using ARO substrate/NADP+ mixture by fluorescence assay
# T2 sequence (P11511 whole entry): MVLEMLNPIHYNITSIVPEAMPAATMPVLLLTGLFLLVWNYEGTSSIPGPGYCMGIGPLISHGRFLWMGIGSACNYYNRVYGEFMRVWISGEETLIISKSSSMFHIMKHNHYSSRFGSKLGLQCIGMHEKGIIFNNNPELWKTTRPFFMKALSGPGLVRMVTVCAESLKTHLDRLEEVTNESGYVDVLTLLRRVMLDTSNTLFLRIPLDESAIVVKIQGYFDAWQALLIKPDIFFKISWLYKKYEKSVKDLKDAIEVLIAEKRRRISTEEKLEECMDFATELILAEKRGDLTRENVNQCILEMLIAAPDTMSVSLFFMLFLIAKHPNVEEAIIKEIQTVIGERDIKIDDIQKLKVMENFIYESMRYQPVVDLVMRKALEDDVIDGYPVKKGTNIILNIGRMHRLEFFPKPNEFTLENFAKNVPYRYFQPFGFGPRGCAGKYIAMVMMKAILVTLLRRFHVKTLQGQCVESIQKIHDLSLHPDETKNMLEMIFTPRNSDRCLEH
# MCF7 [11] = assay: Antiproliferative activity against human resistant MCF7 cells harboring EGFR assessed as cell viability incubated for 96 hrs by CCK8 assay; settings: MCF7, 96 h
# [12] = target: T1, von Hippel-Lindau disease tumor suppressor/Aromatase; assay: PROTAC activity at human ARO/VHL E3 ligase in resistant human MCF-7 cells harboring EGFR assessed as degradation of ARO at 0.5 to 10 uM incubated for 24 hrs by Western blot analysis; format: cell-based; settings: mcf7, 24 h, dose 0.5-10 µM
# MCF7 [13] = assay: Reduction in ERS1 mRNA expression in resistant human MCF7 cells harboring EGFR at 5 uM by real-time quantitative polymerase chain reaction (RT-qPCR) analysis; format: functional, cell-based
# MCF7 [14] = assay: Reduction in MYC mRNA expression in resistant human MCF7 cells harboring EGFR at 5 uM by real-time quantitative polymerase chain reaction (RT-qPCR) analysis; format: functional, cell-based
# [15] = Anti-proliferative activity against human MCF-10A cells incubated for 96 hrs by CCK8 assay; format: toxicity, cell-based
# [16] = target: T1, von Hippel-Lindau disease tumor suppressor/Aromatase; assay: PROTAC activity at human ARO/VHL E3 ligase in human MCF-7 cells assessed as degradation of ARO incubated for 24 hrs by Western blot analysis; format: cell-based; settings: mcf7, 24 h
# [17] = Toxicity in Balb/c mouse xenografted with human MCF7 cells assessed as cellular morphology in liver at 5 mg/kg, ip every other day measured upto 20 days; format: organism-based; settings: in vivo, 480 h, time < 20 day
# [18] = Toxicity in Balb/c mouse xenografted with human MCF7 cells assessed as body weight loss at 5 mg/kg, ip every other day measured upto 20 days; format: organism-based; settings: in vivo, 480 h, time < 20 day
# [19] = Toxicity in Balb/c mouse xenografted with human MCF7 cells assessed as cellular morphology in kidney at 5 mg/kg, ip every other day measured upto 20 days; format: organism-based; settings: in vivo, 480 h, time < 20 day
# MCF7 [20] = assay: Induction of cell cycle arrest in human MCF7 cells assessed as accumulation of cells at G2/M phase at 5 uM incubated for 48 hrs by flow cytometry (reference value: 54.10%); format: functional
# MCF7 [21] = assay: Induction of degradation of MYC protein in human MCF7 cells harboring ERalpha Y537S mutant at 0.5 to 5 uM by Western blot analysis; format: functional, cell-based; settings: dose 0.5-5 µM
# MCF7 [22] = assay: Induction of degradation of MYC protein in human MCF7 cells at 0.5 to 5 uM by Western blot analysis; format: functional, cell-based; settings: dose 0.5-5 µM
# [23] = Toxicity in Balb/c mouse xenografted with human MCF7 cells assessed as cellular morphology in spleen at 5 mg/kg, ip every other day measured upto 20 days; format: organism-based; settings: in vivo, 480 h, time < 20 day
# MCF7 [24] = assay: Induction of degradation of MYC protein in human MCF7 cells harboring ERalpha D538G mutant at 0.5 to 5 uM by Western blot analysis; format: functional, cell-based; settings: dose 0.5-5 µM
# MCF7 [25] = assay: Induction of degradation of MYC protein in human MCF7 cells harboring EGFR at 0.5 to 5 uM by Western blot analysis; format: functional, cell-based; settings: dose 0.5-5 µM
# [26] = Toxicity in Balb/c mouse xenografted with human MCF7 cells assessed as cellular morphology in heart at 5 mg/kg, ip every other day measured upto 20 days; format: organism-based; settings: in vivo, 480 h, time < 20 day
# MCF7 [27] = assay: In vivo PROTAC activity in ERalpha/VHL E3 ligase in human MCF7 cell xenografted in Balb/c mouse model assessed as reduction in ERalpha level in tumor at 5 mg/kg, ip every other day measured upto 20 days; format: functional, organism-based; settings: time <= 20.0 day
# MCF7 [28] = assay: In vivo PROTAC activity in aromatase/VHL E3 ligase in human MCF7 cell xenografted in Balb/c mouse model assessed as reduction in ARO level in tumor at 5 mg/kg, ip every other day measured upto 20 days; format: functional, organism-based; settings: time <= 20.0 day
# MCF7 [29] = assay: Antitumor activity against human MCF7 cells xenografted in Balb/c mouse model assessed as tumor growth inhibition at 5 mg/kg, ip every other day measured upto 20 days; format: functional, organism-based; settings: time <= 20.0 day
# [30] = target: T1, von Hippel-Lindau disease tumor suppressor/Aromatase; assay: PROTAC activity at human ARO/VHL E3 ligase in human MCF-7 cells assessed as degradation of ARO at 1 uM incubated for 24 hrs in presence of MG132 by Western blot analysis; format: cell-based; settings: mcf7, 24 h
# Estrogen receptor beta = Estrogen receptor beta (Homo sapiens, UniProt Q92731); assay: Binding affinity to human ERbeta assessed as inhibition constant incubated under dark condition for 2 hrs by competitive fluorometric binding assay
# Chain of Estrogen receptor beta (Q92731 whole entry): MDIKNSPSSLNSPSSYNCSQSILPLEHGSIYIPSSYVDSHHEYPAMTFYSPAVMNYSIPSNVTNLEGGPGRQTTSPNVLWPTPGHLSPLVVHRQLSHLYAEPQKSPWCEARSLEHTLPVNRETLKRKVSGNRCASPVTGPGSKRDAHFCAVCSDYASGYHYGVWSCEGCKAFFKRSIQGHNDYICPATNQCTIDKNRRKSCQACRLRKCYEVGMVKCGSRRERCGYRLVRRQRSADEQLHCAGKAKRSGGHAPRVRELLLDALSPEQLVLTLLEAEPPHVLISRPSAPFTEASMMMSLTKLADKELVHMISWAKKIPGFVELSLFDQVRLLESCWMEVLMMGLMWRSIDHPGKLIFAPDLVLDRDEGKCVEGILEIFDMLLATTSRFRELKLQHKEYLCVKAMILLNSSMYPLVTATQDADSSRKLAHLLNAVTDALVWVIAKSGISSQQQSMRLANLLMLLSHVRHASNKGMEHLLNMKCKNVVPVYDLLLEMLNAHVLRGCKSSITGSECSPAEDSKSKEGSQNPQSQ
# MCF7 [31] = assay: In vivo antitumor activity against human MCF7 cells xenografted in Balb/c mouse model assessed as reduction in number of Ki67 positive cells in tumor at 5 mg/kg, ip every other day measured upto 20 days; format: functional, organism-based; settings: time <= 20.0 day
Compound,Activity (MCF7 [2]),Activity [3],IC50 (MCF7 [5]) [nM],Activity (MCF7 [6]),Activity (MCF7 [7]),Activity (MCF7 [8]),IC50 (MCF7 [9]) [nM],IC50 (MCF7 [10]) [nM],IC50 (Aromatase) [nM],IC50 (MCF7 [11]) [nM],Activity (MCF7 [13]),Activity (MCF7 [14]),IC50 at 96 h [15] [nM],Activity [16],further results
Cc1ncsc1-c1ccc([C@H](C)NC(=O)[C@@H]2C[C@@H](O)CN2C(=O)[C@@H](NC(=O)COCCOCCOc2ccc(N(CC(F)(F)F)S(=O)(=O)C3CC4OC3C(c3ccc(-n5ccnc5)cc3)=C4c3ccc(O)cc3)cc2)C(C)(C)C)cc1 (some centres not stated),Active,Active,2100,inactive,Active,inactive,10000,350,320,4400,inactive,Active,> 100000,Dose-Dependent Effect,Activity (MCF7 [1]): inactive; Activity (MCF7 [4]): inactive; Activity [12]: Active
Cc1ncsc1-c1ccc([C@H](C)NC(=O)[C@@H]2C[C@@H](O)CN2C(=O)[C@@H](NC(=O)CCCCCOc2ccc(N(CC(F)(F)F)S(=O)(=O)C3CC4OC3C(c3ccc(-n5ccnc5)cc3)=C4c3ccc(O)cc3)cc2)C(C)(C)C)cc1 (some centres not stated),Active,Active,2300,Active,Active,Active,310,540,4600,75,Active,Active,> 100000,Dose-Dependent Effect,Activity [17]: Non-Toxic; Activity [18]: Non-Toxic; Activity [19]: Non-Toxic; Activity (MCF7 [20]): 66.31%; Activity (MCF7 [21]): inactive; Activity (MCF7 [22]): Active; Activity [23]: Non-Toxic; Activity (MCF7 [24]): inactive; Activity (MCF7 [25]): inactive; Activity [26]: Non-Toxic; Activity (MCF7 [27]): Active; Activity (MCF7 [28]): Active; Activity (MCF7 [29]): Active; Activity [30]: Not Active; Ki (Estrogen receptor beta): > 79000 nM; Activity (MCF7 [31]): Active
